From patent US20040138301A1, “Chemical uncouplers for the treatment of obesity” (priority 2002, published 2004)
Like-named read-outs stand apart in the source and are kept apart here.

Columns and labels:
FSK-4 cells = assay: Assay (IV): Glucose utilisation in FSK-4 cells; assay type: cell-based; details: for EC50: read-out: FSK4 EC50; for Emax: read-out: FSK4 Emax (% of FCCP)
Method: Assay (IV): Glucose Utilisation in FSK-4 Cells
The assay measures indirectly the activity of the respiratory chain in FSK-4 cells by using D-(6-^3H(N))-glucose. The ^3H-proton will first be released in the TCA cyclus and transported to the respiratory chain where it will be incorporated into water. The water is thereafter separated from the D-(6-^3H(N))-glucose by evaporation. Finally, the radioactivity in the water is determined using a Topcounter.
FSK-4 cells obtained from ATCC (Maryland, USA), are cultured in growth medium (McCoy's medium with the following addition 100 units/ml penicillin and streptomycin and 10% FCS (fetal calf serum)) at 37° C. and 5% CO2. All media are obtained by Gibco (Life Technologies, Maryland, USA) where not otherwise mentioned.
At day zero the cells are harvested using trypsin-EDTA and washed in assay medium (MEM medium with the following addition 1× non-essential amino acids (M7145, 2 mM glutamin, 100 units/ml pencillin and streptomycin, 0.0075% sodium bicarbonate, 1 mM sodium pyrovate and 2% horse serum) using centrifugation. The cells are plated into single StripPlates wells (Corning B.V.Life Sciences, The Netherlands) that are placed into 24-well plates (Corning B.V.Life Sciences, The Netherlands) with a concentration of 1,5×10^4 cells/100 μl assay medium/well. The cells are then incubated at 37° C. and 5% CO2 overnight.
(§1) The next day the compounds to be tested are diluted to different concentrations in DMSO (Sigma, Missouri, USA) to 100 times final concentration. They are then diluted to a final concentration in assay medium containing 10 μCi/ml D-(6-^3H(N))-glucose (PerkinElmer Life Sciences Inc., Boston, USA). The medium is removed from the cells and 200 μl of the compound dilutions are added in duplicates. The cells are then incubated for another 24 hours at 37° C. and 5% CO2. Finally the cells are lysed by adding 50 μl 10% TCA (tri-chloroacetatic acid). 300 μl of sterile water is then added to the 24-wells that surrounds the StripPlate wells. The plate is sealed with Top-seal-tape (Packard, PerkinElmer Life Sciences Inc., Boston, USA) and the plate is incubated in a heating cupboard at 50° C. to equilibrium the radioactive water formed in the respiratory chain into the water in the 24-well plate by evaporate. The plates incubate for 8 hours where the heating cupboard is turned off. The top seal is removed when the samples have reached room temperature. One ml scintillation liquid (Packard Microscient, PerkinElmer Life Sciences Inc., Boston, USA) is added to all the samples and the radioactivity is determined using a Topcounter (Packard, PerkinElmer Life Sciences Inc., Boston, USA). Non-specific activity is determined by evaporating 200 μl of the dilution medium containing the D-(6-^3H(N))-glucose into 300 μl sterile water, and total radioactivity is determined by counting 5 μl assay medium with 10 μCi/ml D-(6-^3H(N))-glucose.
All calculations are done using GraphPad Prism 3.0 (GraphPad software, Inc.) From concentration-response curves the half maximal concentration (EC50) and maximal efficacy (Emax) are calculated using equation 1.
Y=Bottom+(Top−Bottom)/(1+10^((LogEc50-X)*slope))
(§2) X is the logarithm of the molar concentration of the test compound.
Y is the degree of stimulation caused by the compound measured as percentage of the basal stimulation.
The calculated EC50 value is then used to determine the concentrations used in a study where the Hill slope is calculated.
From the double logarithmic plot of the increase in glucose utilisation and the compound concentration the Hill slope is calculated accordingly to equation 2.
It is presumed, that the maximal increase in the glucose utilisation (as measured in the FSK-4 glucose utilisation assay) is limited by the capacity of the metabolism.

HEP-G2 cells = assay: cells; details: Homo sapiens
Method: Assay (I): Glucose utilisation in a human hepatocytes cell line (HEP-G2 cells)
The assay measures indirectly the activity of the respiratory chain in HEP-G2 cells by using D-(3-^3H(N))-glucose. The ^3H-proton will first be released during the metabolism of glucose where it will be incorporated into water. The water is thereafter separated from the D-(3-^3H(N))-glucose by evaporation. Finally, the radioactivity in the water is determined using a Topcounter.
HEP-G2 cells obtained from ATCC (Maryland, USA), are cultured in assay medium (MEM medium) with the following addition 1× non-essential amino acids (M7145, 2 mM glutamine, 100 units/ml penicillin and streptomycin, 0.0075% sodium bicarbonate, 1 mM sodium pyrovate and 0.5% BSA (Bovin Serum Albumin, Sigma Missouri, USA)) at 37° C. and 5% CO2. All media are obtained by Gibco (Life Technologies, Maryland, USA) where not otherwise mentioned.
At day zero the cells are harvested using trypsin-EDTA and washed in assay medium using centrifugation. […] The cells are then incubated at 37° C. and 5% CO2 overnight.
as §1, with “diluted” for “diluted to different concentrations”, “μCi/ml D-(3-^3H(N))-glucose” for “μCi/ml D-(6-^3H(N))-glucose”, “another 3” for “another 24”, “TCA (trichloroacetic” for “TCA (tri-chloroacetatic”, “the D-(3-^3H(N))-glucose” for “the D-(6-^3H(N))-glucose”, “μCi/ml D-(3-^3H(N))-glucose.” for “μCi/ml D-(6-^3H(N))-glucose.”
The cpm (counts per minute) representing the non-specific radioactivity in the D-(3-^3H(N))-glucose is subtracted from all incubated values. Then mean basal value (samples without any compound added) is subtracted from the values of all stimulated samples (samples added different concentrations of the different test compounds). All these calculations are done using GraphPad Prism 3.0 (GraphPad software, Inc.). The maximal stimulation caused by the test compounds is calculated in percentage of maximal stimulation caused by either DNP or FCCP.
When calculating the concentration-response curve the maximal glucose utilisation stimulated by FCCP or DNP (subtracted non-specific and basal values) is converted to 100% and all the other values are expressed in percentage of this value. Using these percentage values and the compound concentration a concentration-response curve is calculated using sigmoidal dose-response (variable slope) equation (all the calculations are done by GraphPad Prism 3.0 (GraphPad software, Inc.));
Y=Bottom+(Top−Bottom)/(1+10^((LogEC50-X)*slope))
as §2
Y is the degree of stimulation caused by the compound measured as a percentage of the maximal stimulation achieved by use of FCCP or DNP.
The results achieved with these concentrations are used to determine the slope in this area using the following equation: […]

[1] = FSK-4 cells, glucose utilisation, 24 hours incubation
[2] = FSK-4 cells, maximal efficacy relative to FCCP

EC50 (FSK-4 cells; [1]) | Structure (SMILES) | Emax (FSK-4 cells; [2]) | other results
6600 nM | Cc1[nH]c2c(Br)cccc2c1C=C(C#N)C#N [Example 98, 2-(7-Bromo-2-Methyl-1H-Indol-3-Ylmethylene)Malononitrile] | 105% | 
100 nM | CC(C)(C)c1cc(Br)cc(C(=O)Nc2ccc(C#N)cc2Cl)c1O [Example 94, 5-Bromo-3-Tert-Butyl-N-(2-Chloro-4-Cyanophenyl)-2-Hydroxybenzamide] | 90% | 
3800 nM | CCCCCCS(=O)(=O)/C(C#N)=C/c1cc(C(C)(C)C)c(O)c(C(C)(C)C)c1 [Example 91, 3-(3,5-Di-Tert-Butyl-4-Hydroxy-Phenyl)-2-(Hexane-1-Sulfonyl)-Acrylonitrile] |  | 
1700 nM | Cc1[nH]c2ccc(Br)cc2c1C=C(C#N)C#N [Example 99, 2-(5-Bromo-2-Methyl-1H-Indol-3-Ylmethylene)Malononitrile] | 40% | 
700 nM | CC(C)(C)c1cc(/C=C(\C#N)S(=O)(=O)c2ccccc2)cc(C(C)(C)C)c1O [Example 87, (E)-2-Benzenesulfonyl-3-(3,5-Di-Tert-Butyl-4-Hydroxy-Phenyl)-Acrylonitrile] |  | 
1400 nM | CC(C)(C)c1cc(/C=C(\C#N)S(C)(=O)=O)cc(C(C)(C)C)c1O [Example 84, (E)-3-(3,5-Di-Tert-Butyl-4-Hydroxy-Phenyl)-2-Methanesulfonyl-Acrylonitrile] |  | 
20000 nM | Cc1c(Br)cc(C(C)(C)C)c(O)c1C(=O)Nc1ccccc1C(F)(F)F [Example 96, 3-Bromo-5-Tert-Butyl-6-Hydroxy-2-Methyl-N-(2-Trifluoromethylphenyl)Benzamide] | 40% | 
1100 nM | CC(C)(C)c1cc(/C=C(\C#N)C(=O)Nc2ccc(Cl)cc2)cc(C(C)(C)C)c1O [Example 83, N-(4-Chloro-Phenyl)-2-Cyano-3-(3,5-Di-Tert-Butyl-4-Hydroxy-Phenyl)-Acrylamide] | 120% | 
1000 nM | CC(C)(C)c1cc(/C=C(\C#N)S(=O)(=O)c2ccc(Br)cc2)cc(C(C)(C)C)c1O [Example 92, 2-(4-Bromo-Benzenesulfonyl)-3-(3,5-Di-Tert-Butyl-4-Hydroxy-Phenyl)-Acrylonitrile] |  | 
1000 nM | CC(C)(C)c1cc(/C=C(\C#N)S(=O)(=O)c2ccc(F)cc2)cc(C(C)(C)C)c1O [Example 86, (E)-3-(3,5-Di-Tert-Butyl-4-Hydroxy-Phenyl)-2-(4-Fluoro-Benzenesulfonyl)-Acrylonitrile] |  | 

The next lines start with the compound.

Structure (SMILES) | EC50 (FSK-4 cells; [1]) | Emax (FSK-4 cells; [2]) | other results
CC(C)(C)c1cc(/C=C(\C#N)c2ccccn2)cc(C(C)(C)C)c1O [Example 74, 3-(3,5-Di-Tert-Butyl-4-Hydroxy-Phenyl)-2-Pyridin-2-Yl-Acrylonitrile] | 15000 nM | 120% | EC50 (HEP-G2 cells; HepG2, 3 h, read-out: HEP-G2 EC50, HEP-G2 cells, glucose utilisation, 3 hours incubation): 16000 nM; Emax (HEP-G2 cells; HepG2, read-out: HEP-G2 Emax (% of FCCP), HEP-G2 cells, maximal stimulation relative to FCCP): 80%; EC (Emax) (HEP-G2 cells; HepG2, read-out: HEP-G2 Emax (μM), HEP-G2 cells, concentration at which Emax is achieved (CEmax)): 100 µM
CC(C)(C)c1cc(/C=C(\C#N)S(=O)(=O)c2cccc(Br)c2)cc(C(C)(C)C)c1O [Example 93, 2-(3-Bromo-Benzenesulfonyl)-3-(3,5-Di-Tert-Butyl-4-Hydroxy-Phenyl)-Acrylonitrile] | 100 nM |  | 
N#CC(C#N)=Cc1c[nH]c2ccc([N+](=O)[O-])cc12 [Example 35, 2-(5-Nitro-1H-Indol-3-Ylmethylene)-Malononitrile] | 5000 nM | 50% | 
CC(C)S(=O)(=O)/C(C#N)=C/c1cc(C(C)(C)C)c(O)c(C(C)(C)C)c1 [Example 88, (E)-3-(3,5-Di-Tert-Butyl-4-Hydroxy-Phenyl)-2-(Propane-2-Sulfonyl)-Acrylonitrile] | 500 nM |  | 
Cc1[nH]c2ccc([N+](=O)[O-])cc2c1C=C(C#N)C#N [Example 36, 2-(2-Methyl-5-Nitro-1H-Indol-3-Ylmethylene)-Malononitrile] |  |  | EC50 (FSK-4 cells; 24 h): 6350 nM; Emax (FSK-4 cells): 76%
CC(C)(C)c1cc(/C=C(\C#N)S(=O)(=O)c2ccc(Cl)cc2Cl)cc(C(C)(C)C)c1O [Example 90, 3-(3,5-Di-Tert-Butyl-4-Hydroxy-Phenyl)-2-(2,4-Dichloro-Benzenesulfonyl)-Acrylonitrile] | 600 nM |  | 
CC(C)(C)c1cc(/C=C(\C#N)S(=O)(=O)c2ccc(Cl)cc2)cc(C(C)(C)C)c1O [Example 85, (E)-2-(4-Chloro-Benzenesulfonyl)-3-(3,5-Di-Tert-Butyl-4-Hydroxy-Phenyl)-Acrylonitrile] | 800 nM |  | 
N#CC(C#N)=Cc1c(Br)[nH]c2ccccc12 [Example 97, 2-(2-Bromo-1H-Indol-3-Ylmethylene)Malononitrile] | 1500 nM | 55% | 
CC(C)(C)c1cc(/C=C(\C#N)S(=O)(=O)c2cc(Cl)ccc2Cl)cc(C(C)(C)C)c1O [Example 89, 3-(3,5-Di-Tert-Butyl-4-Hydroxy-Phenyl)-2-(2,5-Dichloro-Benzenesulfonyl)-Acrylonitrile] | 500 nM |  | 
